Values joined by “and” are separate entries in the source; they are usually repeats but may differ in a detail not shown here. Equal entries are not always repeated.
Columns and labels:
[1] = test system: MRL/lpr mice; assay: MRL/lpr lupus mouse model, anti-dsDNA autoantibody ELISA; assay type: in vivo; details: individual MRL/lpr mouse, plasma diluted 1:2000
Procedure: MRL/lpr mice at 4 weeks of age were used in this experiment. Animals were tagged with metal tags on their right ears for identification. […] In the proof-of-concept study, combination treatments with recombinant murine B7-H4-Ig and CTX were tested. Mice received single or combination treatment of murine B7-H4-Ig (Lot#DEV-110-5-006) at 5 mg/kg with or without CTX at 50 mg/kg via IP injection, once every 2 weeks (FIG. 59). Murine B7-H4-Ig dosing regimen at 5 mg/kg (100 μg/mouse/injection), twice a week, was chosen based on in vivo studies of monoclonal antibody and fusion proteins. […] Blood samples ([…]) were taken from the submandibular vein (ARC SOP 8050.02.08) 3 days before the protein treatment and the every other week during and after treatments. Blood samples were collected in Microtainer® Blood Collection Tubes, and plasma was harvested from the supernatant of blood sample after centrifugation and stored at −80° C. freezer until use.
A positive anti-dsDNA autoantibody control was generated by pooling plasma from 5 aged MRL/lpr mice, approximately 8 months of age. The positive control plasma was aliquoted and stored at −80° C. freezer before use.
The dsDNA solution (10 mg/mL) was first generated by dissolving salmon testes DNA in PBS at 37° C. in a water bath followed by filtration through a 0.45 μm membrane filter. The dsDNA solution was aliquoted and stored at −80° C. before use.
On the day prior to the autoantibody ELISA, 100 μL of the dsDNA stock solution was first added to 10 mL of PBS resulting in a final concentration of 100 μg/ml. […] of the diluted dsDNA was then added to each well of Immulon 2HB 96-well flat bottom microtiter plates. Plates were placed in a humidified incubator at 37° C. without lids for overnight coating. Plates were washed 4 times with 300 μL of PBS/T [0.1% (v/v) Tween-20 (polysorbate 20) in PBS] using a microtiter plate washer (hydroFLEX, TECAN. Software: HydroControl) and then blocked with 200 μL of blocking buffer (10% fetal bovine serum in PBS) at room temperature for at least 1 h followed by 4 washes with 300 μL of PBS/T. The negative control (normal Balb/C mouse plasma, 1:2000 dilution), positive controls (1:5000, 1:10000, 1:20000 dilutions), and samples (1:2000 dilution) were diluted with blocking buffer. Next, 100 μL of each diluted control and sample was added to corresponding wells (duplicate wells) and incubated at room temperature for 2 h or at 4° C. overnight followed by 4 washes with 300 μL of PBS/T. For detection, 100 μL of anti-mouse IgG-HRP (Sigma, A9309, diluted to 1:10000 in blocking buffer) was added to each well and the plate was incubated at room temperature for 1 h followed by 4 washes with 400 μL of PBS/T.
Later, 100 μL of room temperature, pre-warmed TMB Substrate Reagent was added to each well. When the color developed optimally (about 10 min), 100 μL of stop solution (1% sulfuric acid) was added. The plate was then read for absorbance at 450 nm (OD450) using a microtiter plate reader (SPECTRAmax, Molecular Devices. Software: SoftMax Pro5.2).
All the blood samples were analyzed at the end of the study. The OD450 value of test samples was normalized relatively to the internal positive control at the 1:10000 dilution. The relative value rather than the absolute Ab concentration was used for comparison.
Female MRL/lpr mice at age of 4 weeks were divided into 4 groups (FIG. 59): vehicle, CTX alone, murine B7-H4-Ig alone and CTX plus murine B7-H4-Ig combination treatment (Combo). CTX was given IP, 50 mg/kg, once every 2 weeks. Murine B7-H4-Ig was administrated IP, 100 μg (5 mg/kg), and twice every week. The Combo group received CTX injection every 2 weeks and murine B7-H4-Ig 2 times every week at 5 mg/kg. Mice were treated for 7 weeks.
Plasma was collected from MRL/lpr mice pre-treatment (4 wk) and periodically up to 21 weeks of age.

[2] = test system: CD4^+CD62L^+ naïve T cells; assay: Mouse Th17 assay, IL-17A ELISA; assay type: cell-based
Procedure: CD4^+CD62L^+ naïve T cells were isolated from BALB/c mice as in the above examples, and activated by anti-CD3 and anti-CD28 bound beads in the presence of Th17 differntiation cocktail (TGF-β1 (10 ng/mL), IL-6 (50 ng/mL), IL-23 (4 ng/mL), anti-IL-4 (10 μg/mL), anti-IFN-γ (5 μg/mL) and anti-IL-2 (5 μg/mL)). Murine B7-H4-Ig (10 μg/mL) or retinoic acid (RA) (10 μM) was added to the cultures on day 0, day 1, or day 2 of the 4 day culture. IL-17A levels were measured by ELISA at the end of the 4 day culture.
The Th17 assay is 4 days in duration. In order to determine when B7-H4-Ig is acting, the Th17 assay was performed with the addition of 10 μg/mL of murine B7-H4-Ig, 10 μg/mL of mouse IgG control, or […] retinoic acid on Day 0, Day 1, or Day 2.
Peripheral T cells were obtained from spleens and inguinal lymph nodes of 6-9 week old BALB/c mice by mechanical disruption through a cell strainer followed by red blood cell (RBC) lysis.
Naïve helper T cells (CD4^+CD62L^+) were obtained using the Miltenyi Biotec microbead system. CD4^+ cells are enriched by negative selection, and followed by a positive selection of CD62L^+. In some experiments CD25+ cells were also depleted.
After selection, cells are activated in vitro with anti-CD3/CD28 beads at a 1:1 cell:bead ratio in the presence of the TH17 differentiation cocktail (TGF-β1 (10 ng/ml), IL-6 (50 ng/ml), IL-23 (4 ng/ml), anti-IL-2 (5 μg/ml), anti-IL-4 (10 μg/ml), and anti-IFN-γ (5 μg/ml)). Murine B7-H4-Ig is added at a final concentration of 1.25-20 μg/ml. Retinoic acid (RA) is used as positive control and mouse IgG is used as a negative control.
After 4 days of culture, cultures are spun down and supernatants are harvested and stored at <−65° C. until analyzed for IL-17A levels by ELISA.

[3] = test system: DBA/1 mice; assay: Therapeutic CIA study AA#79 (female mice), disease score; assay type: in vivo, mouse
Procedure: (§1) DBA/1 mice (10 per group) aged 7-9 weeks were used for the CIA model. Mice from several vendors (Jackson Laboratories, Harlan Laboratories, and Taconic Farms) were tested and it was determined that Taconic mice are most appropriate for the CIA studies. Taconic mice develop more consistent and severe disease symptoms and show continued disease progression, while mice from the other vendors often show stable, less severe disease, even in the absence of treatment. female (F) mice in AA#79 and male (M) mice in AA#80, were tested to determine which gender to use in future experiments.
(§2) On the day before the study is initiated, the hair on the right flank of each mouse was removed using an electric clipper. A metal identification tag was placed on the right ear of each mouse. On Day 0, mice were immunized with 100 μL of chicken collagen type II/Complete Freund's Adjuvant (CII/CFA) emulsion in the right flank. On Day 20, the hair on the left flank of each mouse was removed using an electric clipper, and on Day 21, mice were immunized with 100 μL of chicken collagen type II/Incomplete Freund's Adjuvant (CII/IFA) emulsion in the left flank. Pre-filled syringes of CII/CFA and CII/IFA emulsion purchased from Hooke Laboratories were used to ensure consistent dosing with and potency of the immunogen.
(§3) Early arthritis symptoms, such as erythema and mild swelling, usually appear on Day 21, and on Day 28, more severe symptoms such as swelling in many digits and inflammation extending to the tarsal joint are typically present. Each limb is evaluated for severity of arthritis symptoms three times a week using a widely accepted arthritis severity score system, shown in Table 2. The scores from each of the 4 limbs are summed to yield the disease score of each mouse. […]
(§4) Treatment was initiated when the average disease score for the study animals was greater than four. This corresponded to Day 29 in AA#79 and Day 24 in […]. By waiting until animals are symptomatic, it was ensured that the model is performed in a therapeutic rather than prophylactic mode.
(§5) B7-H4-Ig, RPA110010, and murine B7-H4-Ig proteins were administered by intraperitoneal (IP) injection 3 times a week for a total of 8 doses. RPA110010 is an extracellular domain variant of B7-H4-Ig, SEQ ID NO:126. Control murine and human IgG proteins were given once a week for a total of 3 doses. […] All proteins were diluted to the desired concentration (500 μg in 500 μL, or 1 mg/mL) with sterile PBS immediately before injection. Vehicle control mice receive Amplimmune formulation buffer diluted 1:10 in PBS, with an injection volume of 500 μL.

[4] = test system: DBA/1 mice; assay: Therapeutic CIA study AA#80 (male mice), disease score; assay type: in vivo, mouse; details: individual mice (Tag #)
Procedure: as §1, §2, §3, §4, §5

O=P1(N(CCCl)CCCl)NCCCO1 (centres unmarked) [CTX, Cyclophosphamide]
dsDNA autoantibody (OD450 normalized against positive control diluted at 1:10000) ([1]; mouse age 4 weeks (pre-treatment)): 0.15 and 0.46 and 0.05 and 0.09 and 0.01
dsDNA autoantibody (OD450 normalized against positive control diluted at 1:10000) ([1]; mouse age 7 weeks): 0.55 and 0.21 and 1.07 and 0.10 (2×)
dsDNA autoantibody (OD450 normalized against positive control diluted at 1:10000) ([1]; mouse age 8 weeks): 2.50 and 0.33 and 2.03 and 0.17 and 0.06
dsDNA autoantibody (OD450 normalized against positive control diluted at 1:10000) ([1]; mouse age 9 weeks): 3.46 and 2.09 and 2.26 and 0.79 and 0.26
dsDNA autoantibody (OD450 normalized against positive control diluted at 1:10000) ([1]; mouse age 10 weeks): 1.50 and 4.05 and 2.95 and 1.97 and 0.39
dsDNA autoantibody (OD450 normalized against positive control diluted at 1:10000) ([1]; mouse age 11 weeks): 2.97 and 4.67 and 3.75 and 2.21 and 0.55
dsDNA autoantibody (OD450 normalized against positive control diluted at 1:10000) ([1]; mouse age 15 weeks): 2.93 and 4.87 and 2.62 and 1.76 and 1.11
dsDNA autoantibody (OD450 normalized against positive control diluted at 1:10000) ([1]; mouse age 19 weeks): 2.61 and 11.76 and 3.05 and 2.58 and 1.26

CC1=C(/C=C/C(C)=C/C=C/C(C)=C/C(=O)O)C(C)(C)CCC1 [RA, All trans-Retinoic Acid]
IL-17A expression (ELISA, day 4) ([2]; Th17 promoting conditions, relative to control mouse IgG (FIG. 56)): reduced IL-17A expression
IL-17A inhibition by time of addition ([2]; murine B7-H4-Ig 10 μg/mL or RA 10 μM (b737 prints 10 mM) added day 0, day 1 or day 2 of 4 day culture (FIG. 53)): inhibited IL-17A most potently when added at the beginning of the assay (day 0)

Syngis
CIA disease score ([3]; AA#79, Study Day 12, individual mouse (Tag#)): 0 (2×) and 1 (3×) and 2
CIA disease score ([3]; AA#79, Study Day 18, individual mouse (Tag#)): 2 (4×) and 1 (2×)
CIA disease score ([3]; AA#79, Study Day 22, individual mouse (Tag#)): 4 and 2 (4×) and 3
CIA disease score ([3]; AA#79, Study Day 25, individual mouse (Tag#)): 2 (4×) and 5 and 3
CIA disease score ([3]; AA#79, Study Day 27, individual mouse (Tag#)): 5 (2×) and 7 and 4 (2×) and 6
CIA disease score ([3]; AA#79, Study Day 29, individual mouse (Tag#)): 6 (3×) and 5 and 4 and 10
CIA disease score ([3]; AA#79, Study Day 32, individual mouse (Tag#)): 10 and 9 (2×) and 7 and 8
CIA disease score ([3]; AA#79, Study Day 34, individual mouse (Tag#)): 10 (2×) and 9 (2×) and 6
CIA disease score ([3]; AA#79, Study Day 36, individual mouse (Tag#)): 11 (2×) and 9 (2×) and 10 and 8
CIA disease score ([3]; AA#79, Study Day 39, individual mouse (Tag#)): 11 (2×) and 8 and 6 and 9 and 12
CIA disease score ([3]; AA#79, Study Day 41, individual mouse (Tag#)): 12 and 10 (2×) and 13 and 6 and 11
CIA disease score ([3]; AA#79, Study Day 43, individual mouse (Tag#)): 12 (2×) and 11 (2×) and 6 and 10
CIA disease score ([3]; AA#79, Study Day 46, individual mouse (Tag#)): 14 (2×) and 11 and 12 and 6 and 10
CIA disease score ([3]; AA#79, Study Day 48, individual mouse (Tag#)): 13 (3×) and 11 and 5 and 12
CIA disease score ([3]; AA#79, Study Day 50, individual mouse (Tag#)): 11 (2×) and 12 (3×) and 9
CIA disease score ([3]; AA#79, Study Day 54, individual mouse (Tag#)): 13 (2×) and 12 (3×) and 8
CIA disease score ([3]; AA#79, Study Day 57, individual mouse (Tag#)): 13 (2×) and 14 and 7 and 12 and 15
AA#80 CIA disease scores ([4]; Study Day 20): 4 (3×) and 1 and 2 (2×) and 5 and 3 and 6
AA#80 CIA disease scores ([4]; Study Day 22): 5 (4×) and 2 (2×) and 4 (2×) and 8
AA#80 CIA disease scores ([4]; Study Day 24): 5 (4×) and 6 (3×) and 3 and 8
AA#80 CIA disease scores ([4]; Study Day 27): 6 (4×) and 4 (2×) and 5 and 7 and 8
AA#80 CIA disease scores ([4]; Study Day 29): 6 (2×) and 5 (4×) and 4 and 7 and 11
AA#80 CIA disease scores ([4]; Study Day 31): 8 (3×) and 5 and 6 (3×) and 3 and 11
AA#80 CIA disease scores ([4]; Study Day 34): 10 and 7 (2×) and 8 (4×) and 6 and 11
AA#80 CIA disease scores ([4]; Study Day 36): 10 and 8 (5×) and 7 and 11 and 13
AA#80 CIA disease scores ([4]; Study Day 38): 11 (2×) and 6 (2×) and 8 and 7 (2×) and 10 (2×) and 12
AA#80 CIA disease scores ([4]; Study Day 41): 12 and 13 (2×) and 7 and 8 and 9 and 10 (2×) and 14
AA#80 CIA disease scores ([4]; Study Day 44): 10 and 14 and 7 (3×) and 8 and 11 and 12 and 13

From patent publication US9011853B2, “B7-H4 fusion proteins and methods of use thereof” (Amplimmune, Inc., priority 2009, dated 2015)
